Where a name gives a salt, the structure may show the parent alone.
Tests used:
BMDMs [1] = assay: RNA sequencing (GSEA, ORA) of BMDMs; type: cell-based, mouse; details: LPS 4 h; for ERK1/2 cascade and PI3K signalling (shared transcriptomic changes) / amino acid metabolism and transport, and autophagy transcripts: BMDMs pre-treated
Protocol: (§1) All compounds used DMSO as a vehicle except for 4-hydroxy tamoxifen (EtOH), NAC (PBS), and AOAA for tracing experiments (Media). LPS was used at a concentration of 100 ng/ml for indicated timepoints (2, 3, 4, 6, 8, 24, 48 h). FHIN1 (10 or 20 μM), MMF (50 or 100 μM), DMF (25 μM), AOAA (5 mM), oligomycin (10 μM), CCCP (50 μM) NAC (1 mM), and IMT1 (10 μM) pre-treatments were performed for 3 h prior the addition of LPS. Cells were treated with valinomycin (10 nM) 15 mins before LPS stimulation. Anti-CD210 or IgG control (10 μg/ml) antibodies were added to cells 1 h prior to LPS stimulation. Recombinant mouse IL-10 protein (100 ng/ml) was added to cells at the same time as LPS. Cells were treated with IFN-B1 (220 ng/ml) for 3 h. Cells were treated with C-178 (1 μM) 1 h prior to LPS stimulation or transfection with 2′3′-cGAMP (1.5 μg/ml) for 4 hrs to achieve cGAS-STING activation. Cells were treated with ODN 2088 (1 μM) for 1 hr prior to LPS stimulation or transfection with CPG ODN 1826 (1.5 μg/ml) to achieve TLR9 activation. 3 different timepoints of 4-hydroxy tamoxifen (TAM) (600 nM or 2 μM) or EtOH treatment were performed-these are specified in the individual figure legends. For ‘48 h’ treatments EtOH/TAM was added on day 5 of 6 during the BMDM differentiation protocol. On day 6 they were plated with EtOH/TAM (left overnight) and treated the following day. For ‘72 h’ treatments EtOH/TAM was added on day […] of 6 during the BMDM differentiation protocol. On day 6 they were plated with EtOH/TAM (left overnight) and treated the following day. For ‘96 h’ treatments EtOH/TAM was added on day […] of 6 during the BMDM differentiation protocol. On day 6 they were plated with EtOH/TAM and treated 2 days later.
BMDMs (3 independent mice) were treated as indicated and RNA was extracted as previously detailed. mRNA was extracted from total RNA using poly-T-oligo-attached magnetic beads. After fragmentation, the first strand cDNA was synthesized using random hexamer primers, followed by the second strand cDNA synthesis. The library was checked with Qubit and real-time PCR for quantification and bioanalyzer for size distribution detection. Quantified libraries were pooled and sequenced on the NovaSeq 6000 S4 (Illumina). Differential expression analysis of two conditions/groups was performed using counted reads and the DESeq2 R package^67. Pathway enrichment analyses were performed as indicated in quantification and statistical analysis.
Details of all statistical analyses performed can be found in the figure legends. Data were expressed as mean±standard error of the mean (SEM) unless stated otherwise. Representative western blots are shown. For metabolomics data, MetaboAnalyst 5.0^66 was used to analyse, perform statistics, and visualise the results. Autoscaling of features (metabolites) was used for heatmap generation. One-way ANOVA corrected for multiple comparisons by the Tukey statistical test was used and a p.adjusted<0.05 was set as the cut-off. For proteomics data, protein signal intensity was converted to a log2 scale and biological replicates were grouped by experimental condition. Protein-wise linear models combined with empirical Bayes statistics were used for the differential expression analyses. The Bioconductor package limma was used to carry out the analysis using an R based online tool^68. […] The proteomics cut-offs for analysis were a log2FC of 0.5 and a false discovery rate (FDR)<0.05, determined using t statistics. RNA seq cut-offs were set to log2FC of 1 and an FDR<0.05. Overrepresentation analysis (ORA) of significant changes were assessed using Enrichr^4 and the Bioconductor package clusterProfiler 4.0 in R (version 3.6.1). Further information on this visualisation method is available^69. Emapplots were generated using enrichplot package in R (version 3.6.1). GSEA analysis of RNAseq was performed using the Broad Institutes GSEA 4.1.070. […]

BMDMs [2] = assay: ELISA of cytokine release from BMDMs; type: cell-based, mouse; details: for IL-6 release / IL-10 release / TNF-α release: BMDMs pre-treated 3 h
Protocol: as §1
Pre-designed silencer select siRNAs for Cgas (s103166), Tmem173 (s91058), Tlr3 (s100579), Tlr9 (s96268), As/(s99640), Tlr7 (s100720), Ddx58 (s106376), Ifih1 (s89787), Nrf2 (s70522), Atf4 (s62689) and negative control (4390843) were ordered from Thermo Fisher. siRNA sequences are given in Table S2. Cells were transfected with 50 nM siRNA using 5 μl lipofectamine RNAiMAX according to manufacturer's instructions (Thermo Fisher). Cells were transfected in medium without serum and antibiotics which was replaced with complete medium 8 hours later. Cells were subsequently left for at least a further 12 hours prior to treatment.
BMDMs were plated in the presence or absence of ultrapure ethidium bromide (100 ng/ml) and incubated for a further 6 days prior to treatment. Depletion of mtDNA was determined by genomic DNA isolation followed by qPCR using primers specific for areas of mitochondrial DNA (D-loop) and areas of mtDNA that are not inserted into nuclear DNA (Non-NUMT).
DuoSet ELISA kits for IL-1β, TNFα, IL-6, IL-10, and GDF15 were purchased from R&D Systems and were carried out according to the manufacturer's instructions with appropriately diluted cell supernatants added to each plate in duplicate or triplicate. IFN-β was determined using DuoSet ELISA kit from R&D Systems or Abcam (ab252363). Quantikine ELISA kit for IFN-β (R&D Systems) was used for determination of IFN-β concentration in serum samples and from human cells, and these were also carried out according to the manufacturer's instructions. Absorbance at 450 nm was quantified using a FLUOstar Optima plate reader. Corrected absorbance values were calculated by subtracting the background absorbance, and cytokine concentrations were subsequently obtained by extrapolation from a standard curve plotted on GraphPad Prism 9.2.0.

Row | Compound | Fos expression (RNA seq) (BMDMs [1]; BMDMs pre-treated vs DMSO) | Jun expression (RNA seq) (BMDMs [1]; BMDMs pre-treated vs DMSO) | other ISGs, such as Lcn2 (RNAseq) (BMDMs [1]; BMDMs pre-treated vs DMSO) | ERK1/2 cascade and PI3K signalling (shared transcriptomic changes) (BMDMs [1]) | amino acid metabolism and transport, and autophagy transcripts (BMDMs [1]) | IL-6 release (BMDMs [2]; LPS 4 h) | IL-10 release (BMDMs [2]; LPS 4 h) | TNF-α release (BMDMs [2]; LPS 4 h) | Ifnb1 (IFN-β) expression and several interferon-stimulated genes (Irf1, Ifih1, Rsad2, Ifit2), RNAseq (BMDMs [1]; BMDMs pre-treated vs DMSO) | NRF2 and ATF4 stress response (BMDMs [1]; BMDMs pre-treated vs DMSO) | TNF-α signalling (overrepresentation analysis of RNAseq) (BMDMs [1]; BMDMs pre-treated vs DMSO) | expression of HRI stress response, amino acid metabolism and tRNA aminoacylation (GSEA) (BMDMs [1]; BMDMs pre-treated vs DMSO) | expression of inflammatory pathways, including IL-1 and IL-10 signalling (GSEA) (BMDMs [1]; BMDMs pre-treated vs DMSO) | genes associated with metabolism (GSEA) (BMDMs [1]; BMDMs pre-treated vs DMSO) | GDF15 release (BMDMs [2]; BMDMs pre-treated, LPS 4 h) | LPS-induced IFN-β release (BMDMs [2]; BMDMs pre-treated, LPS 4 h) | TNF-α production (BMDMs [2]; BMDMs pre-treated, co-treated with recombinant IL-10 100 ng/ml, LPS 4 h) | LPS-induced IFN-β release in the presence of EtBr (BMDMs [2]; BMDMs treated with EtBr 100 ng/ml 6 days (mtDNA depletion), then FHIN1, LPS 4 h) | augmentation in IFN-β release with knockdown of Tlr3 (BMDMs [2]; BMDMs, siRNA 50 nM, LPS 4 h) | boost in IFN-β release with silencing of Tlr7, Ddx58 (RIG-I) or Ifih1 (MDA5) (BMDMs [2]; BMDMs, siRNA 50 nM, LPS 4 h)
1 | COC(=O)/C=C/C(=O)OC [DMF, dimethyl fumarate] | not reduced | reduced | suppressed | strong downregulation | increased | reduced | decreased | increased |  |  |  |  |  |  |  |  |  |  |  | 
2 | CCOC(=O)[C@@]12CCCC=C1N(Cc1ccc(-c3ccccc3)cc1)C(=O)[C@H]2CC(=O)NC [FHIN1, Fumarate hydratase-IN-1] | not reduced | reduced | suppressed | strong downregulation | increased | reduced | decreased | increased | upregulation | activation | most highly upregulated pathway | Increased expression | decreased | suppression | drove GDF15 release | increase | failed to impair STAT3 phosphorylation or augment TNF-α production | no longer boosted | did not affect | abrogated
